Assay results reported in US20100311756A1, “METHODS FOR DELAYING THE PROGRESSION OF AT LEAST ONE OF CARDIAC HYPERTROPHY, CARDIAC REMODELING OR LEFT VENTRICULAR FUNCTION OR THE ONSET OF HEART FAILURE IN SUBJECTS IN NEED OF TREATMENT THEREOF” (TAKEDA PHARMACEUTICALS NORTH AMERICA, INC., priority 2009, published 2010).

Experiments:
[1] = system: post-myocardial infarction rabbits; assay: Chronic xanthine oxidase inhibition following myocardial infarction (permanent coronary artery ligation) in rabbits; format: in vivo; conditions: for Heart Weight / Heart/Body Weight Ratio: Day 49; for EDV / EF (ejection fraction) / LVIDd / LVIDs / LVPWd / LVPWs / SF (shortening fraction): baseline (Day 0, pre-surgery, before dosing); for Ejection fraction (percent change from baseline) versus vehicle/control / Shortening fraction (percent change from baseline) versus vehicle/control: delayed treatment (from Day 22)
From the text: • Animals Male New Zealand white rabbits (1-2 kg; Clerco Research Farms, Cincinnati, Ohio, USA) were housed in separate cages in an environmentally controlled facility. The animals were subjected to circadian light-dark cycles, maintained on standard rabbit chow (2030C, Harlan Teklad, Madison, Wis., USA) and provided water ad libitum.
The procedures used in this study were reviewed and approved by the Institutional Animal Care and Use Committee (IACUC) of QTest Labs for compliance with regulations and current accepted practices. All applicable sections of the Final Rules of the Animal Welfare Act regulations (Section 9 CFR) and the Public Health Service Policy on Humane Care and Use of Laboratory Animals (OPRR, NIH, 1986) were followed. At the end of the study, all animals were humanely euthanized in accordance with accepted guidelines of the American Veterinary Medical Association (See, American Veterinary Medicine Association (AVMA), 2000 Report of the AVMA Panel on Euthanasia, The Journal of the American Veterinary Medical Association, 218(5):669-696 (2001)). • Drugs Febuxostat and allopurinol (Sigma-Aldrich, St. Louis, Mo., USA) were each formulated as a suspension in 0.5% methylcellulose (Sigma-Aldrich, St. Louis, Mo.) as the vehicle. […] Allopurinol was given orally at 60 mg/kg. […] The rabbits were anesthetized with an intramuscular injection of ketamine (35 mg/kg)/xylazine (5 mg/kg) and pre-surgery enrofloxacin (12 mg/kg). Isoflurane (1-2%) was given during the surgery as required to maintain a deep level of anesthesia and the animals were allowed to breathe 100% oxygen. A limb lead electrocardiogram (ECG) was obtained to monitor sinus rhythm, heart rate, and J-point deviation. The rabbit was placed in dorsal recumbency, and the sternum was exposed by blunt dissection and then incised with scissors. […] Myocardial ischemia was confirmed by regional cyanosis of the myocardial surface and ST-segment elevation on the ECG. The sternum was closed, leaving the pericardial sac as it was. The muscle layers, subcutaneous layer and skin were then closed. Ketofen (1 mg/kg) and buprenorphine (0.03 mg/kg/8 hour) were administered subcutaneously, and the rabbits were placed on a heating pad, covered with a towel, and observed continuously until awake. Post-operative medications given subcutaneously to the rabbits included enrofloxacin (12 mg/kg, b.i.d.), ketofen (0.03 mg/kg, b.i.d.), and buprenorphine ([…], t.i.d. to q.i.d.) for 1 to 3 days as needed. • Experimental Procedures Rabbits were surgically altered (Day 0) to produce MI-induced heart failure and assigned to one of four treatment groups: the vehicle/control group (n=8) received vehicle for 49 consecutive days (7 weeks), the febuxostat/early treatment group (n=8) received febuxostat (10 mg/kg) for 49 consecutive days (7 weeks), the febuxostat/delayed treatment group (n=7) received vehicle for 21 consecutive days (3 weeks) and then febuxostat (10 mg/kg) starting on Day 22 (3 weeks post-surgery) for 28 consecutive days (4 weeks), and the allopurinol/delayed treatment group (n=8) received vehicle for 21 consecutive days and then allopurinol (60 mg/kg) starting on Day 22 (3 weeks post-surgery) for 28 consecutive days (4 weeks). All treatments were started on Day 1 (i.e. the day after surgery) and administered by oral gavage (2 mL/kg). The animals were fasted overnight prior to each day of dosing.
On Day 0 (baseline, pre-surgery), and on Days 21 (end of week 3) and 49 (end of week 7) at approximately one hour after dosing, the rabbits were sling restrained for ECG acquisition.

[2] = system: enzymes involved in purine and pyrimidine metabolism; conditions: Takano et al., Life Sciences 2005; cited from earlier work
[3] = delayed treatment: vehicle 21 days then oral FBS 10 mg/kg/day or AL 60 mg/kg/day for 28 days
[4] = early treatment: FBS 10 mg/kg/day oral for 49 days from 1 day after coronary occlusion
[5] = early treatment from one day after ligation, Day 21, still apparent on Day 49

| Structure (SMILES) | Heart Weight [1, 3] | Heart/Body Weight Ratio [1, 3] | EDV ([1]; delayed treatment group) | EF (ejection fraction) ([1]; delayed treatment group) | LVIDd ([1]; delayed treatment group) | LVIDs ([1]; delayed treatment group) | LVPWd ([1]; delayed treatment group) | LVPWs ([1]; delayed treatment group) | SF (shortening fraction) ([1]; delayed treatment group) | Ejection fraction (percent change from baseline) versus vehicle/control ([1]; Days 21 and 49) | Shortening fraction (percent change from baseline) versus vehicle/control ([1]; Days 21 and 49) | Cross-inhibition on other purine and pyrimidine metabolism enzymes such as purine nucleoside phosphorylase and orotidine-5′-monophosphate decarboxylase [2] | further results |
| --- | --- | --- | --- | --- | --- | --- | --- | --- | --- | --- | --- | --- | --- |
| Oc1ncnc2[nH]ncc12 [allopurinol] | 6.59 ± 0.30 g | 0.24 ± 0.01% | 2.21 ± 0.21 mL | 74 ± 1.9% | 1.29 ± 0.05 cm | 0.77 ± 0.03 cm | 0.31 ± 0.02 cm | 0.46 ± 0.02 cm | 40 ± 1.7% | not significantly different | not significantly different | cross-inhibition |  |
| Cc1nc(-c2ccc(OCC(C)C)c(C#N)c2)sc1C(=O)O [febuxostat, 2-[3-cyano-4-(2-methylpropoxy)phenyl]-4-methylthiazole-5-carboxylic acid] | 6.65 ± 0.27 g | 0.28 ± 0.01% | 1.42 ± 0.13 mL | 71 ± 1.7% | 1.11 ± 0.04 cm | 0.70 ± 0.02 cm | 0.32 ± 0.02 cm | 0.44 ± 0.02 cm | 36 ± 1.2% | not significantly different | not significantly different | avoids the cross-inhibition | Heart Weight [1, 4]: small trend toward a lower; Heart/Body Weight Ratio [1, 4]: 0.25 ± 0.01%; Heart Weight ([1]; early treatment: FBS 10 mg/kg/day oral for 49 days from 1 day after coronary occlusion, listed as FBS): 6.38 ± 0.19 g; EDV ([1]; early treatment group): 1.94 ± 0.25 mL; EF (ejection fraction) ([1]; early treatment group): 68 ± 1.8 %; LVIDd ([1]; early treatment group): 1.25 ± 0.04 cm; LVIDs ([1]; early treatment group): 0.82 ± 0.03 cm; LVPWd ([1]; early treatment group): 0.26 ± 0.02 cm; LVPWs ([1]; early treatment group): 0.49 ± 0.02 cm; SF (shortening fraction) ([1]; early treatment group): 34 ± 1.4 %; Reduction of ejection fraction (percent change from baseline) versus vehicle/control [1, 5]: significantly lessened; Reduction of shortening fraction (percent change from baseline) versus vehicle/control [1, 5]: significantly lessened; Increase in LVIDd versus vehicle/control ([1]; early treatment, Day 21): less of an increase; Increase in end diastolic volume versus vehicle/control ([1]; early treatment, Day 21): less of an increase; Increase in LVIDs versus vehicle/control ([1]; early treatment, Day 21, reaching statistical significance): less of an increase; Left ventricular posterior wall dimension during diastole, change from baseline ([1]; early treatment, Days 21 and 49): no reduction |
